The results in this text go back to US8497263B2, “Pyrrolinone derivative and pharmaceutical composition comprising the same” (Shionogi & Co., Ltd., priority 2007, dated 2013).

This experiment addresses T1, human P2X3 receptor (Homo sapiens, UniProt P56373).
T1 construct: expressed in transfected cells
T1 sequence (P56373 1-397): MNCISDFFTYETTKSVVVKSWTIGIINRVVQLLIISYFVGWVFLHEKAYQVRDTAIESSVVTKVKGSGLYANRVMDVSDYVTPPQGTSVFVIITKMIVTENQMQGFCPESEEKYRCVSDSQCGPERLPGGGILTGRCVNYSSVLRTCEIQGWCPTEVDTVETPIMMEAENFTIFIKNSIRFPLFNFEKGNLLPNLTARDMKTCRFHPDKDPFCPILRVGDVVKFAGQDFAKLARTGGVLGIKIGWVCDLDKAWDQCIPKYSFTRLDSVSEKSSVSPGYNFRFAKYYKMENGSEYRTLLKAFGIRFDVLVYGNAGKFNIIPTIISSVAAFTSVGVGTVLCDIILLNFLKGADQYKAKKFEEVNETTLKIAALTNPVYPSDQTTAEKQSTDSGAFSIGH
Kind of experiment: Inhibition of ATP-induced calcium fluorescence (Fluo-3, FDSS 3000) in C6BU-1 cells stably expressing human P2X3 receptor. It is filed as cell-based. The following applies: C6BU-1 cell transfected with human P2X3 receptor gene; 40 nM ATP solution; Fluo-3 fluorescence intensity. The protocol: Stably expressing cell line (C6BU-1 cell transfected with human P2X3 receptor gene (GenBank accession number Y07683)) was used. The cells were seeded in a 96-well microtiter plate at a concentration of 8000 cells/well and cultured in the medium (8.3% fetal bovine serum, 8.3% horse serum, 1% antibiotic and antifungal in DMEM) for one day at 37° C. under 5% carbon dioxide atmosphere. The medium was replaced with 4 μM Fluo-3-AM solution (pH7.5) containing 20 mM HEPES, 137 mM NaCl, 2.7 mM KCl, 0.9 mM MgCl2, 5.0 mM CaCl2, 5.6 mM D-glucose, 2.5 mM probenecid, 10% BSA, and 0.08% Pluronic F-127, and incubated at 37° C. under 5% dioxide carbon atmosphere for one hour. The plate was washed with washing buffer (20 mM HEPES, 137 mM NaCl, 2.7 mM KCl, 0.9 mM MgCl2, 5.0 mM CaCl2, 5.6 mM D-glucose, 2.5 mM probenecid, pH7.5), and each well was added with 40 μL of this buffer. The plate was placed in High-Throughput Screening System FDSS 3000 (Hamamatsu Photonics K.K.). Measurement of fluorescence intensity by FDSS 3000 was started, and 40 μL of DMSO solutions containing different concentrations of the test compound as prepared by dilution with dilution buffer (20 mM HEPES, 137 mM NaCl, 2.7 mM KCl, 0.9 mM MgCl2, 5.0 mM CaCl2, 5.6 mM D-glucose, 2.5 mM probenecid, 0.1% Pluronic F-127, pH7.5) were dispensed to each well through the built-in automatic dispenser. Five minutes after, 40 nM ATP solution (50 μL) prepared by dilution with the dilution buffer was dispensed through the built-in automatic dispenser, and the measurement of fluorescence intensity was continued for 3 min. For each well, the specific maximum fluorescence intensity was calculated as the ratio of the maximum fluorescence intensity after addition of the ATP solution to the fluorescence intensity at the starting of the measurement. […] FDSS software (Hamamatsu Photonics K.K.) was used for calculation of the specific maximum fluorescence intensity. IC50 was calculated using Microsoft™ Excel™ (Microsoft Corporation) and XLfit™ (ID Business Solutions Ltd.).
Consider `CCOC(=O)c1ccc(N2C(=O)C(=O)C(C(=O)c3ccc(OC)cc3)C2c2ccccc2)cc1` (stereo not drawn) [Example I-4], for which the IC50 (as a rule, the concentration at which inhibition is half-maximal) was 0.02 µM.
As for `CCOC(=O)c1ccc(N2C(=O)C(O)=C(C(=O)c3ccc(OC)cc3)C2C(C)C)cc1` (stereo not drawn) [Example I-20], the figure is 0.14 µM; as for `COc1ccc(C(=O)C2C(=O)C(=O)N(c3ccc(C(=O)OC(C)C)cc3)C2c2ccccc2)cc1` (stereo not drawn) [Example I-21], 0.16 µM.
Regarding `COC(=O)c1ccc(C(=O)C2=C(O)C(=O)N(c3ccc(C(F)(F)F)cc3)C2c2ccccc2)cc1` (stereo not drawn) [Example I-24], the IC50 came out at 0.18 µM.
`CCOC(=O)c1ccc(N2C(=O)C(O)=C(C(=O)C(C)(C)C)C2c2ccccc2)cc1` (stereo not drawn) [Example I-28]: the IC50 came out at 0.26 µM.
Consider `CCOC(=O)c1ccc(N2C(=O)C(O)=C(C(=O)c3cccs3)C2c2ccccc2)cc1` (stereo not drawn) [Example I-36], for which the IC50 was determined as 0.38 µM.
As for `CCOC(=O)c1ccc(N2C(=O)C(=O)C(/C(=N\O)c3ccc(OC)cc3)C2c2ccccc2)cc1` (stereo not drawn) [Example I-44], the figure is 0.56 µM.
To `CCCCC(=O)C1=C(O)C(=O)N(c2ccc(C(=O)OCC)cc2)C1c1ccccc1` (stereo not drawn) [Example I-49] belongs 1.02 µM; to `CCOC(=O)c1csc(N2C(=O)C(O)=C(C(=O)c3ccc(OC)cc3)C2c2ccccc2)n1` (stereo not drawn) [Example I-52], 1.27 µM; to `CCOC(=O)c1ccc(N2C(=O)C(O)=C(C(=O)C3CCC3)C2c2ccccc2)cc1` (stereo not drawn) [Example I-53], 1.28 µM.
As for `CCOC(=O)c1ccc(N2C(=O)C(O)=C(C(=O)c3cccn3C)C2c2ccccc2)cc1` (stereo not drawn) [Example I-57], the figure is 1.53 µM; as for `CC(=O)c1ccc(N2C(=O)C(=O)C(C(=O)c3ccc(Cl)cc3)C2c2ccc(Br)cc2)cc1` (stereo not drawn) [Example I-62], 1.96 µM; as for `COc1ccc(C(=O)C2=C(O)C(=O)N(c3ccc(Cl)cc3)C2c2ccc(F)cc2)cc1` (stereo not drawn) [Example I-66], 3.46 µM.
As to `CCOC(=O)c1ccc(N2C(=O)C(=O)C(C(C)=O)C2c2ccccc2)cc1` (stereo not drawn) [Example I-72], the 50% inhibitory concentration (IC50) worked out at 4.79 µM.
To `COc1ccc(C(=O)C2=C(O)C(=O)N(c3ccc(C(=O)N(C)C)cc3)C2c2ccccc2)cc1` (stereo not drawn) [Example I-74] belongs 5.92 µM; to `COc1ccc(C(=O)C2=C(O)C(=O)N(c3ccc(C#N)cc3)C2c2ccccc2)cc1` (stereo not drawn) [Example I-76], 6.48 µM; to `CCOC(=O)c1ccc(N2C(=O)C(O)=C(C(=O)c3ccco3)C2c2ccccc2)cc1` (stereo not drawn) [Example I-77], 8.01 µM.
Regarding `CCOC(=O)Cc1ccc(N2C(=O)C(O)=C(C(=O)c3ccc(OC)cc3)C2c2ccccc2)cc1` (stereo not drawn) [Example I-79], the IC50 was found to be 8.95 µM.
As for `CCOc1ccc(C(=O)C2C(=O)C(=O)N(c3ccc(OC)cc3)C2c2ccc(Cl)cc2)cc1` (stereo not drawn) [Example I-88], the figure is 15.4 µM.
As for `COc1ccccc1C1c2c(-c3ccc(C)cc3)n[nH]c2C(=O)N1c1ccc(F)cc1` (stereo not drawn) [Example I-95], the figure is 0.56 µM.
As for `O=C1c2[nH]nc(-c3ccc(Cl)cc3)c2C(c2ccc([N+](=O)[O-])cc2)N1c1ccccn1` (stereo not drawn) [Example I-118], the figure is 17.8 µM; as for `COc1cccc(C2c3c(C)n[nH]c3C(=O)N2c2ccc(Br)cc2)c1` (stereo not drawn) [Example I-122], 19.3 µM; as for `COc1ccc(C2NC(=O)c3[nH]nc(-c4ccc(C)cc4)c32)cc1OC` (stereo not drawn) [Example I-124], 22 µM.
For `COc1ccccc1C1c2c(C3CCC3)n[nH]c2C(=O)N1c1ccc(F)cc1` (stereo not drawn) [Example I-260], the IC50 came out at 5.63 µM.
To `COc1ccc(C(=O)C2=C(O)C(=O)N(CCc3ccc(F)cc3)C2c2ccccc2OC)cc1` (stereo not drawn) [Example I-273] belongs 2.2 µM; to `COc1ccc(-c2n[nH]c3c2C(c2ccccc2OC)N(CCc2ccc(F)cc2)C3=O)cc1` (stereo not drawn) [Example I-278], 1.4 µM.
As for `COc1ccccc1C1c2c(-c3ccc(F)cc3)n[nH]c2C(=O)N1c1ccc(F)cc1` (stereo not drawn) [II-5], the IC50 stood at 1.37 µM.
To `CCCCC(=O)C1=C(O)C(=O)N(c2ccc(-c3ccon3)cc2)C1c1ccccc1OC` (stereo not drawn) [II-9] belongs 0.86 µM.
`CO/N=C/c1ccc(N2C(=O)c3[nH]nc(-c4ccc(OC)cc4)c3C2c2ccccc2OC)cc1` (stereo not drawn) [II-13]: the IC50 was determined as 0.57 µM.
Regarding `CCOC(=O)c1ccc(N2C(=O)C(=NOC)C(C(=O)c3ccc(OC)cc3)C2c2ccccc2)cc1` (stereo not drawn) [II-16], the IC50 turned out to be 1.51 µM.
With `CCOC(=O)c1ccc(N2C(=O)C(O)=C(C(=NOC)c3ccc(OC)cc3)C2c2ccccc2)cc1` (stereo not drawn) [II-17], the half-maximal inhibitory concentration (IC50) is 0.305 µM.
As for `COc1ccc(/C(N)=C2/C(=O)C(=O)N(c3ccc(C(F)(F)F)cc3)C2c2ccccc2)cc1` (stereo not drawn) [II-22], the figure is 2.31 µM; as for `COc1ccccc1C1C(C(=O)C(C)(C)C)=C(O)C(=O)N1c1ccc(C2=NCCS2)cc1` (stereo not drawn) [II-29], 0.59 µM.
As for `COc1ccccc1C1C(C(=O)C2CC2)=C(O)C(=O)N1c1ccc(-c2ccon2)cc1` (stereo not drawn) [II-45], the figure is 1.07 µM; as for `C#Cc1ccc(N2C(=O)C(O)=C(C(=O)c3ccc(OC)cc3)C2c2ccc(F)cc2)cc1` (stereo not drawn) [II-57], 1.68 µM.
With `C#Cc1ccc(N2C(=O)c3[nH]nc(C(C)(C)C)c3C2c2ccc(F)cc2)cc1` (stereo not drawn) [II-64], the half-inhibitory concentration (IC50) is 1.31 µM.
To `O=C(C1=C(O)C(=O)N(c2ccc(-c3ccon3)cc2)C1C1CCCCC1)c1cccnc1` (stereo not drawn) [II-75] belongs 0.37 µM.
To `COc1ccccc1C1C(C(=O)CCOCc2ccccc2)=C(O)C(=O)N1c1ccc(-c2ccon2)cc1` (stereo not drawn) [II-85] belongs 2.52 µM.
To `COc1ccccc1C1c2c(CCOCc3ccccc3)n[nH]c2C(=O)N1c1ccc(-c2ccon2)cc1` (stereo not drawn) [II-87] belongs 1.32 µM; to `COc1ccc(C(=O)C2=C(O)C(=O)N(c3nc(-c4ccncc4)cs3)C2C2CCCCC2)cc1` (stereo not drawn) [II-95], 0.71 µM.
Consider `O=C(C1=C(O)C(=O)N(c2ccc(-c3ccon3)cc2)C1C1CCCCC1)c1ccc([N+](=O)[O-])cc1` (stereo not drawn) [II-98], for which the concentration for half-maximal inhibition (IC50) came out at 0.07 µM.
In the case of `COc1ccc(-c2n[nH]c3c2C(c2ccccc2)N(c2ccc(C(=O)N(C)C)cc2)C3=O)cc1` (stereo not drawn) [II-106], the IC50 was 2.08 µM.
As for `COc1ccccc1C1C(C(=O)C(C)=O)=C(O)C(=O)N1c1ccc(-c2ccon2)cc1` (stereo not drawn) [II-123], the IC50 is 2.09 µM.
To `COc1ccccc1C1C(C(=O)C(C)(C)CO)=C(O)C(=O)N1c1ccc(-c2ccon2)cc1` (stereo not drawn) [II-129] belongs 0.74 µM.
To `Nc1ccc(C(=O)C2=C(O)C(=O)N(c3ccc(-c4ccon4)cc3)C2C2CCCCC2)cc1` (stereo not drawn) [II-130] belongs 0.13 µM.
To `COc1ccccc1C1c2c(C(C)(C)C)n[nH]c2C(=O)N1c1ccc(-c2cc(CO)no2)cc1` (stereo not drawn) [II-171] belongs 0.95 µM.
With `COc1ccccc1C1c2c(C(C)(C)C)n[nH]c2C(=O)N1c1ccc(-c2cc(C(=O)N(C)C)no2)cc1` (stereo not drawn) [II-172], the IC50 is 2 µM.
As for `COc1ccc(C(=O)C2=C(O)C(=O)N(c3nc4ccc(Cl)cc4s3)C2C2CCCCC2)cc1` (stereo not drawn) [II-181], the figure is 0.33 µM; as for `CCC(CC)C1C(C(=O)c2ccc(C(=O)NCCO)cc2)=C(O)C(=O)N1c1ccc(-c2noc(C)n2)cc1` (stereo not drawn) [II-183], 0.032 µM.
In the case of `COc1ccccc1C1c2c(C(C)(C)C)n[nH]c2C(=O)N1c1ccc(-c2cc(NC(=O)OC(C)(C)C)no2)cc1` (stereo not drawn) [II-193], the IC50 is 2.27 µM.
As for `CC(=O)Nc1ccc(C(=O)C2=C(O)C(=O)N(c3ccc(-c4ccon4)cc3)C2C2CCCCC2)cc1` (stereo not drawn) [II-201], the figure is 0.01 µM.
